Measured values taken from ChEMBL document CHEMBL1142404, “Synthesis of 2-modified aristeromycins and their analogs as potent inhibitors against Plasmodium falciparum S-adenosyl-L-homocysteine hydrolase” (Bioorg Med Chem, 2008).

Experiments:
Adenosylhomocysteinase [1] = target: Adenosylhomocysteinase (Homo sapiens, UniProt P23526); assay: Inhibition of human SAHH
Adenosylhomocysteinase [2] = target: Adenosylhomocysteinase (Plasmodium falciparum 3D7, UniProt P50250); assay: Inhibition of Plasmodium falciparum SAHH
adenosine deaminase = assay: Metabolic stability in presence of calf intestinal adenosine deaminase assessed as compound remaining after 15 mins; format: ADME; conditions: cattle, read-out: Activity

Adenosylhomocysteinase (Homo sapiens, UniProt P23526), sequence (P23526 whole entry): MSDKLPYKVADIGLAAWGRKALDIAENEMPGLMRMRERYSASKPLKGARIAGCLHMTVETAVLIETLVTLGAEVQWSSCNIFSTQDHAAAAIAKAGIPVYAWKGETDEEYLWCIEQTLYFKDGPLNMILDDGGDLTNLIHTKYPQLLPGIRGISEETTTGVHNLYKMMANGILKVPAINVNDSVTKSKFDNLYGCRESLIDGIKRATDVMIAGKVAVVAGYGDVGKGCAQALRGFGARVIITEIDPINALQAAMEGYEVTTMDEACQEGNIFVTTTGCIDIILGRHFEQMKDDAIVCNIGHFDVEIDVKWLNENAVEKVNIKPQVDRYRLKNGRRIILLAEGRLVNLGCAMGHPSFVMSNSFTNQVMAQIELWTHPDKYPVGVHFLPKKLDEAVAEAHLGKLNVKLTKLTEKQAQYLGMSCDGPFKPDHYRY
Adenosylhomocysteinase (Plasmodium falciparum 3D7, UniProt P50250), sequence (P50250 whole entry): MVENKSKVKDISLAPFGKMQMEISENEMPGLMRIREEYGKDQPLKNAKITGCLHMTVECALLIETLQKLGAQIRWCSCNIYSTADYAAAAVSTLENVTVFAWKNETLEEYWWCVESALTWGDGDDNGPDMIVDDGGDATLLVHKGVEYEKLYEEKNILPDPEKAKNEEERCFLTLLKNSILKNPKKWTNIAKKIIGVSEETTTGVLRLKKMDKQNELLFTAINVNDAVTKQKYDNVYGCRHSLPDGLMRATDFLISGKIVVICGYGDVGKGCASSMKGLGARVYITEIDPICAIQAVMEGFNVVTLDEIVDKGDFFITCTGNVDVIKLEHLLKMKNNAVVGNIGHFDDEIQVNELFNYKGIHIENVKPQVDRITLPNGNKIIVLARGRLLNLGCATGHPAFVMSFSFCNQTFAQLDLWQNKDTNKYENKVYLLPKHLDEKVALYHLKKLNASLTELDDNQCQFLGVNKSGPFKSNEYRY

| Compound | IC50 (Adenosylhomocysteinase [1]) [µM] | IC50 (Adenosylhomocysteinase [2]) [µM] | remaining at 0.25 h (adenosine deaminase) [%] |
| --- | --- | --- | --- |
| Nc1nc(N)c2ncn([C@@H]3C[C@H](CO)[C@@H](O)[C@H]3O)c2n1 | 90.7 | 4.51 | 95.2 |
| Nc1nc(F)nc2c1ncn2[C@@H]1C[C@H](CO)[C@@H](O)[C@H]1O | 47.2 | 1.98 | 99.5 |
| Nc1ncnc2c1ncn2[C@@H]1C[C@H](CO)[C@@H](O)[C@H]1O [ARISTEROMYCIN] |  |  | 22.4 |
